Data published in patent publication US7718808B2, “Thiazole derivatives” (Kyowa Hakko Kirin Co., Ltd., priority 2003, dated 2010).

| SMILES | melting point |
| --- | --- |
| COc1ccc(C(=O)Nc2nc(-c3ccco3)c(C(=O)C3CCOCC3)s2)c(OC)c1 [Compound 484, N-[4-(2-Furyl)-5-(tetrahydropyran-4-ylcarbonyl)thiazol-2-yl]-2,4-dimethoxybenzamide] | 219 to 222 °C |
| O=C(CN1CCN(c2ncccn2)CC1)Nc1nc(-c2ccco2)c(C(=O)c2ccccn2)s1 [Compound 278, N-[4-(2-Furyl)-5-(pyridin-2-ylcarbonyl)thiazol-2-yl]-2-[4-(2-pyrimidinyl)piperazin-1-yl]acetamide] | 199 to 200 °C |
| O=C(Nc1nc(-c2occc2-c2ccccc2)c(-c2ccncc2)s1)c1ccncc1 [Compound 603, N-[4-(3-Phenylfuran-2-yl)-5-(4-pyridyl)thiazol-2-yl]pyridine-4-carboxamide] | 190 to 192 °C |
| O=C(Nc1nc(-c2ccco2)c(C(=O)c2ccc(=O)n(Cc3ccccc3)c2)s1)c1ccncc1 [Compound 364, N-[5-(1-Benzyl-2-oxo-1,2-dihydropyridin-5-ylcarbonyl)-4-(2-furyl)thiazol-2-yl]pyridine-4-carboxamide] | 265 to 282 °C (dec.) |
| O=C(Nc1nc(-c2ccco2)c(C(=O)c2ccccc2)s1)c1ccnnc1 [Compound 153, N-[5-Benzoyl-4-(2-furyl)thiazol-2-yl]pyridazine-4-carboxamide] | 225 to 248 °C |
| Cc1ccc(C(=O)c2sc(NC(=O)c3ccncc3)nc2-c2ccco2)cn1 [Compound 313, N-[4-(2-Furyl)-5-(2-methylpyridin-5-ylcarbonyl)thiazol-2-yl]pyridine-4-carboxamide] | 230 to 232 °C (dec.) |
| COc1cc(C(=O)Nc2nc(-c3ccco3)c(-c3ccncc3)s2)ccn1 [Compound 105, N-[4-(2-Furyl)-5-(4-pyridyl)thiazol-2-yl]-2-methoxypyridine-4-carboxamide] | 285 to 288 °C |
| O=C(Nc1nc(-c2ccco2)c(C(=O)C2CCOCC2)s1)c1c(F)cccc1F [Compound 492, 2,6-Difluoro-N-[4-(2-furyl)-5-(tetrahydropyran-4-ylcarbonyl)thiazol-2-yl]benzamide] | 168 to 170 °C |
| Cc1ccc(C(=O)c2sc(NC(=O)c3ccco3)nc2-c2ccco2)cn1 [Compound 315, N-[4-(2-Furyl)-5-(2-methylpyridin-5-ylcarbonyl)thiazol-2-yl]furan-2-carboxamide] | 197 to 209 °C |
| CCn1ccc(C(=O)c2sc(NC(=O)c3ccncc3)nc2-c2ccco2)cc1=O [Compound 369, N-[5-(1-Ethyl-2-oxo-1,2-dihydropyridin-4-ylcarbonyl)-4-(2-furyl)thiazol-2-yl]pyridine-4-carboxamide] | 277 to 281 °C |
| CCOC(=O)Nc1nc(-c2ccco2)c(C(=O)C2CCOCC2)s1 [Compound 581, Ethyl N-[4-(2-furyl)-5-(tetrahydropyran-4-ylcarbonyl)thiazol-2-yl]carbamate] | 152 to 153 °C |
| O=C(Nc1nc(-c2ccco2)c(C(=O)c2ccco2)s1)c1ccncc1 [Compound 342, N-[4-(2-Furyl)-5-(furan-2-ylcarbonyl)thiazol-2-yl]pyridine-4-carboxamide] | 245 to 248 °C |
| CN(C)Cc1cc(C(=O)Nc2nc(-c3ccco3)c(C(=O)c3ccccc3)s2)ccn1 [Compound 141, N-[5-Benzoyl-4-(2-furyl)thiazol-2-yl]-2-(dimethylaminomethyl)pyridine-4-carboxamide] | 205 to 209 °C |
| Cc1cc(C(=O)Nc2nc(-c3ccco3)c(C(=O)c3ccccn3)s2)no1 [Compound 243, N-[4-(2-Furyl)-5-(pyridin-2-ylcarbonyl)thiazol-2-yl]-5-methylisoxazole-3-carboxamide] | 209 to 213 °C |
| Cc1cncc(C(=O)Nc2nc(-c3ccoc3)c(C(=O)C3CCOCC3)s2)c1 [Compound 613, N-[4-(3-Furyl)-5-(tetrahydropyran-4-ylcarbonyl)thiazol-2-yl]-5-methylpyridine-3-carboxamide] | 244 to 246 °C |
| Cc1ccc(C(=O)c2sc(NC(=O)c3ccncc3)nc2-c2ccco2)o1 [Compound 343, N-[4-(2-Furyl)-5-(5-methylfuran-2-ylcarbonyl)thiazol-2-yl]pyridine-4-carboxamide] | 185 to 189 °C |
| O=C(Nc1nc(-c2ccco2)c(C(=O)c2ccccn2)s1)c1ccno1 [Compound 242, N-[4-(2-Furyl)-5-(pyridin-2-ylcarbonyl)thiazol-2-yl]isoxazole-5-carboxamide] | 223 to 230 °C |
| O=C(Nc1nc(-c2ccco2)c(C(=O)c2ccccn2)s1)c1cnc(C2CC2)nc1 [Compound 229, 2-Cyclopropyl-N-[4-(2-furyl)-5-(pyridin-2-ylcarbonyl)thiazol-2-yl]pyrimidine-5-carboxamide] | 150 to 154 °C |
| O=C(Nc1nc(-c2ccco2)c(C(=O)C2CCOCC2)s1)c1cccc(F)c1F [Compound 489, 2,3-Difluoro-N-[4-(2-furyl)-5-(tetrahydropyran-4-ylcarbonyl)thiazol-2-yl]benzamide] | 154 to 160 °C |
| COc1cccc(C(=O)Nc2nc(-c3ccco3)c(C(=O)c3ccccn3)s2)c1 [Compound 201, N-[4-(2-Furyl)-5-(pyridin-2-ylcarbonyl)thiazol-2-yl]-3-methoxybenzamide] | 165 to 166 °C |

| SMILES | melting point |
| --- | --- |
| Cc1cnc(C(=O)Nc2nc(-c3ccco3)c(C(=O)C3CCOCC3)s2)cn1 [Compound 510, N-[4-(2-Furyl)-5-(tetrahydropyran-4-ylcarbonyl)thiazol-2-yl]-5-methylpyrazine-2-carboxamide] | 130 to 131 °C |
| CC(=O)c1ccc(C(=O)Nc2nc(-c3ccco3)c(C(=O)c3ccccn3)s2)cc1 [Compound 208, 4-Acetyl-N-[4-(2-furyl)-5-(pyridin-2-ylcarbonyl)thiazol-2-yl]benzamide] | 204 to 206 °C |
| Cc1ccoc1-c1nc(NC(=O)c2ccncc2)sc1-c1ccncc1 [Compound 602, N-[4-(3-Methylfuran-2-yl)-5-(4-pyridyl)thiazol-2-yl]pyridine-4-carboxamide] | 254 to 257 °C |
| CCn1cc(-c2sc(NC(=O)c3ccncc3)nc2-c2ccco2)ccc1=O [Compound 127, N-[5-(1-Ethyl-2-oxo-1,2-dihydropyridin-5-yl)-4-(2-furyl)thiazol-2-yl]pyridine-4-carboxamide] | 285 to 289 °C |
| Cn1ccc(C(=O)c2sc(NC(=O)c3ccncc3)nc2-c2ccco2)c1 [Compound 354, N-[4-(2-Furyl)-5-(1-methylpyrrol-3-ylcarbonyl)thiazol-2-yl]pyridine-4-carboxamide] | 209 to 211 °C |
| O=C(Nc1nc(-c2ccco2)c(C(=O)c2ccccn2)s1)c1ccnnc1 [Compound 227, N-[4-(2-Furyl)-5-(pyridin-2-ylcarbonyl)thiazol-2-yl]pyridazine-4-carboxamide] | 270 to 274 °C |
| Cc1ccc(C(=O)Nc2nc(-c3ccco3)c(C(=O)C3CCOCC3)s2)cc1 [Compound 460, N-[4-(2-Furyl)-5-(tetrahydropyran-4-ylcarbonyl)thiazol-2-yl]-4-methylbenzamide] | 190 to 192 °C |
| Cc1cc(C(=O)Nc2nc(-c3ccco3)c(C(=O)C3CCOCC3)s2)ccn1 [Compound 500, N-[4-(2-Furyl)-5-(tetrahydropyran-4-ylcarbonyl)thiazol-2-yl]-2-methylpyridine-4-carboxamide] | 169 to 173 °C |
| CC1(C(=O)Nc2nc(-c3ccco3)c(C(=O)c3ccccn3)s2)CC1 [Compound 192, N-[4-(2-Furyl)-5-(pyridin-2-ylcarbonyl)thiazol-2-yl]-1-methylcyclopropanecarboxamide] | 195 to 196 °C |
| COc1cccc(OC)c1C(=O)Nc1nc(-c2ccco2)c(C(=O)C2CCOCC2)s1 [Compound 486, N-[4-(2-Furyl)-5-(tetrahydropyran-4-ylcarbonyl)thiazol-2-yl]-2,6-dimethoxybenzamide] | 152 to 156 °C |
| Cc1ccnc(C(=O)c2sc(NC(=O)c3ccncc3)nc2-c2ccco2)c1 [Compound 295, N-[4-(2-Furyl)-5-(4-methylpyridin-2-ylcarbonyl)thiazol-2-yl]pyridine-4-carboxamide] | 240 to 245 °C |
| CCC(=O)c1sc(NC(=O)c2ccncc2)nc1-c1ccco1 [Compound 381, N-[4-(2-Furyl)-5-propionylthiazol-2-yl]pyridine-4-carboxamide] | 225 to 240 °C (dec.) |
| O=C1CCC(C(=O)c2sc(NC(=O)c3ccncc3)nc2-c2ccco2)CC1 [Compound 448, N-[4-(2-Furyl)-5-(4-oxocyclohexylcarbonyl)thiazol-2-yl]pyridine-4-carboxamide] | 206 to 212 °C |
| COCC(=O)c1sc(NC(=O)c2ccc(F)cc2)nc1-c1ccco1 [Compound 405, 4-Fluoro-N-[4-(2-furyl)-5-(methoxyacetyl)thiazol-2-yl]benzamide] | 166 to 167 °C |
| O=C(Nc1nc(-c2ccco2)c(C(=O)C2CCOCC2)s1)c1cnn(-c2ccccc2)c1 [Compound 521, N-[4-(2-Furyl)-5-(tetrahydropyran-4-ylcarbonyl)thiazol-2-yl]-1-phenylpyrazole-4-carboxamide] | 217 to 220 °C |
| O=C(Nc1nc(-c2ccco2)c(C(=O)C2CCOCC2)s1)c1cccc2c1OCCO2 [Compound 495, N-[4-(2-Furyl)-5-(tetrahydropyran-4-ylcarbonyl)thiazol-2-yl]-1,4-benzodioxane-5-carboxamide] | 188 to 190 °C |
| O=C(CN1CCOCC1)Nc1nc(-c2ccco2)c(C(=O)c2ccccn2)s1 [Compound 264, N-[4-(2-Furyl)-5-(pyridin-2-ylcarbonyl)thiazol-2-yl]morpholinoacetamide] | 170 to 171 °C |
| O=C(c1ccccn1)c1sc(NC(=O)C2COc3ccccc3O2)nc1-c1ccco1 (stereo not drawn) [Compound 211, N-[4-(2-Furyl)-5-(pyridin-2-ylcarbonyl)thiazol-2-yl]-1,4-benzodioxane-2-carboxamide] | 103 to 104 °C |
| Cc1cc(C(=O)Nc2nc(-c3ccoc3)c(C(=O)C3CCOCC3)s2)ccn1 [Compound 615, N-[4-(3-Furyl)-5-(tetrahydropyran-4-ylcarbonyl)thiazol-2-yl]-2-methylpyridine-4-carboxamide] | 202 to 204 °C |
